Laboratory results as given in US11981750B2 (priority 2016, dated 2024).
Starred links: 1 amine or outer side, 2 acyl side, 3 side chain; linkers in the order of their positions; H or OH if unused. Non-standard residues stand in square brackets, D forms with d. Residues, ends and D or L forms follow the SMILES beside them. *: point of attachment. TtdDga = O=C(COCC(=O)[*:2])NCCCOCCOCCOCCCN[*:1]; Arachidoyl = CCCCCCCCCCCCCCCCCCCC(=O)*; NMeV = CN[CH](C(=O)O)C(C)C

Assays:
[1] = test system: anti-Map antibodies in sera from bovine infected by Map; test: Antibody ELISA with bovine sera (Map-infected versus healthy controls); type: binding; conditions: for ROC analysis of ELISA antibody response, area under the curve: 60 MAP+ bovine sera and 53 control sera
[2] = test system: PBMCs isolated from control cows and cows naturally infected with Map; test: Cytokine secretion by PBMCs after 24-hour stimulation with Map lipopeptides; type: cell-based, cattle; conditions: 1, 5, 10 μg/ml
Procedure: Peripheral blood mononuclear cells (PBMCs) were isolated from control non-infected (n=4) and cattle naturally infected with C-type Map (n=4) to determine if lipoproteins, L3P and L5P (structures disclosed in FIG. 9), can elicit immunological responses. Sixty ml of blood was collected via jugular venipuncture into a syringe containing 2× acid-citrate-dextrose to obtain PBMCs.
PBMCs were resuspended at a final concentration of 8×10^6/ml in complete medium consisting of RPMI-1640 with 2 mM 1-glutamine and 25 mM HEPES (Gibco, Grand Island, NY) and supplemented with 10% fetal calf serum (Gibco), 100λ penicillin-streptomycin (Gibco). Cells were plated in 24-well culture plates and incubated for 24 hr at 39° C. in 5% CO2 in a humidified atmosphere with the following treatment groups, nonstimulated (NS; negative control), pokeweed mitogen (PWM, 10 μg/ml, positive control; Sigma, St. Louis, MO), and four antigens that included whole cell sonicated extracts of Map strains K-10 and S397 (10 μg/ml); lipoproteins L3P and L5P (1, 5, 10 μg/ml concentrations). The lipoproteins had to be solubilized in 100% methanol to 1 mg/ml concentrations and then diluted in the complete medium to final concentrations indicated above. […] After a 24-hr stimulation, the supernatants were harvested by centrifugation at 400×g for 5 min. Supernatants were removed without disturbing the cells in culture and stored at −20° C. until cytokine measurement. Cytokines IFN-γ, IL-1, IL-2, IL-4, IL-6 and TNF-α were all measured using Ciraplex bovine multiplex cytokine arrays (Aushon Biosystems, Billerica, MA).

[3] = physchem; conditions: organic solvents (DMSO, CHCl3, CH2Cl2, MeOH and EtOH)
[4] = test system: sera of animals infected by M. bovis; type: binding, bovine; conditions: serial twofold dilution of sera
[5] = test system: sheep sera naturally or experimentally infected with S-type strains of Map; test: Antibody ELISA with sheep sera infected with S-type strains of Map; type: binding; conditions: control n=15, positive n=39
[6] = test system: PBMCs isolated from cows naturally infected with Map; test: Flow cytometry of CD25+ T and B cells after PBMC stimulation with lipopeptides; type: cell-based, cattle
[7] = PBMCs from infected cows, lipopeptide 1, 5, 10 μg/ml

## CCCCCCCCCCCCCCCCCCCC(=O)O [lipid moiety, eicosanoic acid]
[1]; lipid solubilized in ethanol, bovine sera
  ELISA antibody response against the lipid moiety of L5P, discrimination of control from infected animals: does not discriminate control from infected animals

## CCC(C)C(NC(=O)C(C(C)C)N(C)C(=O)C(N)Cc1ccccc1)C(=O)NC(Cc1ccccc1)C(=O)NC(C)C(=O)NCCCOCCOCCOCCCNC(=O)COCC(=O)O (stereo not drawn) [L5P^H2O] (H-F[NMeV]IFA-TtdDga; configuration not given here)
[1]; antigen in PBS
  ROC analysis of ELISA antibody response, area under the curve: 0.9453
[1]; antigen in ethanol
  ROC analysis of ELISA antibody response, area under the curve: 0.9313

## CCCCCCCCCCCCCCCCCCCC(=O)N[C@H](Cc1ccccc1)C(=O)N(C)[C@H](C(=O)N[C@H](C(=O)N[C@@H](Cc1ccccc1)C(=O)N[C@@H](C)C(=O)OC)[C@@H](C)CC)C(C)C [L5P] (Arachidoyl-[dF][NMeV]IFA-OMe)
[1]; antigen in ethanol
  ROC analysis of ELISA antibody response, area under the curve: 0.97
other
  solubility in water or aqueous buffers: insoluble
[2]; P<0.0006
  effect of lipopeptide concentration on TNF-α secretion by PBMCs: dose-dependent effect
[2]; 24-hr stimulation
  IFN-γ cytokine response: elicited cytokine responses
  IL-1β cytokine response: elicited cytokine responses
  TNF-α cytokine response: elicited cytokine responses
[3]
  solubility: < 1000 µg/mL
[4]
  cross-reaction with sera of animals infected by M. bovis: does not cross-react
[5]
  immunodetection of L5P by sheep sera (anti-L5P antibodies): less than half of the sheep sera do not appear to contain anti-L5P antibodies
[6]; [7]
  CD25+ B cells response: stronger response compared to L3P
  proliferation of CD25+ CD8 T cells: remained static
[6]; data not shown
  CD25+ CD4 or CD25+ γδ T cell populations, difference between L3P and L5P: No significant differences
